Measurements published in patent US11446287B2, “Compounds and methods for EP300 or CBP modulation and indications therefor” (Opna Immuno-Oncology SA, priority 2019, dated 2022).

The molecules below were run against T1, Recombinant human EP300 containing the bromodomain (EP300-BD (1040-1161)) (Homo sapiens, UniProt Q09472) (assay: EP300 Alphascreen binding assay).
T1 construct: Recombinant human EP300 bromodomain (EP300-BD (1040-1161)); made in house; host or cells: E. coli BL21-CodonPlus (DE3), modified pET vector
T1 sequence (Q09472 1040-1161): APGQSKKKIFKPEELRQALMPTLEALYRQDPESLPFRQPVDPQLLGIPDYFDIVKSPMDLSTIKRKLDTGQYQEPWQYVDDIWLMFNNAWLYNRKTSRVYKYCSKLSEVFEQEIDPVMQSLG
Method in brief: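 Displacement of a biotinylated acetyl-K56 histone H3 peptide from the N-His bromodomain construct (1040-1161) measured by AlphaScreen proximity, beads at 7.5 μg/ml final, read 60 min after addition. Protein, peptide and compound first incubated 1 h at room temperature, pH 7.5 HEPES buffer; IC50 by four-parameter logistic fit.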

Question: `Cc1noc(C)c1-c1cnc2c(c1)c(-c1ccc(C(=O)O)cc1)cn2[C@@H](C)c1ccccn1` [P-0001, (S)-4-(5-(3,5-dimethylisoxazol-4-yl)-1-(1-(pyridin-2-yl)ethyl)-1H-pyrrolo[2,3-b]pyridin-3-yl)benzoic acid] was tested. Which IC50 did it give?
Answer: 0.0001 to 1 µM

Question: `Cc1noc(C)c1-c1cnc2c(c1)c(-c1ccc(C(=O)O)cc1)cn2C(c1ccccn1)C1CCCC1` (stereo not shown) [P-0002, 4-(1-(cyclopentyl(pyridin-2-yl)methyl)-5-(3,5-dimethylisoxazol-4-yl)-1H-pyrrolo[2,3-b]pyridin-3-yl)benzoic acid] was tested. Which IC50 did it give?
Answer: 0.0001 to 1 µM

Question: Which IC50 does the source give for `Cc1noc(C)c1-c1cnc2c(c1)c(-c1ccccc1)cn2C(c1ccccn1)C1CCCC1` (stereo not shown) [P-0003, 4-(1-(cyclopentyl(pyridin-2-yl)methyl)-3-phenyl-1H-pyrrolo[2,3-b]pyridin-5-yl)-3,5-dimethylisoxazole] here?
Answer: 8 to 1000 µM

Question: `Cc1noc(C)c1-c1cnc2c(c1)c(-c1ccc(C(=O)O)cc1)cn2C(c1ccccn1)C1CCCCC1` (stereo not shown) [P-0004, 4-(1-(cyclohexyl(pyridin-2-yl)methyl)-5-(3,5-dimethylisoxazol-4-yl)-1H-pyrrolo[2,3-b]pyridin-3-yl)benzoic acid] was tested. Which IC50 did it give?
Answer: 0.0001 to 1 µM

Question: Which IC50 does the source give for `COC(=O)c1ccc(-c2cn(S(=O)(=O)c3ccc(C)cc3)c3ncc(-c4c(C)noc4C)cc23)cc1` [P-0005, methyl 4-(5-(3,5-dimethylisoxazol-4-yl)-1-tosyl-1H-pyrrolo[2,3-b]pyridin-3-yl)benzoate] here?
Answer: 8 to 1000 µM

Question: Which IC50 does the source give for `Cc1noc(C)c1-c1cnc2c(c1)c(-c1ccnc(C(=O)O)c1)cn2S(=O)(=O)c1ccccc1` [P-0055, 4-(5-(3,5-dimethylisoxazol-4-yl)-1-(phenylsulfonyl)-1H-pyrrolo[2,3-b]pyridin-3-yl)picolinic acid] here?
Answer: 0.0001 to 1 µM

Question: `COc1cccc(Cn2cc(-c3cccc(C(=O)O)c3)c3cc(-c4c(C)noc4C)cnc32)c1` [P-0056, 3-(5-(3,5-dimethylisoxazol-4-yl)-1-(3-methoxybenzyl)-1H-pyrrolo[2,3-]pyridin-3-yl)benzoic acid] was tested. Which IC50 did it give?
Answer: 0.0001 to 1 µM

Question: `COc1cccc(Cn2cc(-c3ccnc(C(=O)O)c3)c3cc(-c4c(C)noc4C)cnc32)c1` [P-0057, 4-(5-(3,5-dimethylisoxazol-4-yl)-1-(3-methoxybenzyl)-1H-pyrrolo[2,3-b]pyridin-3-yl)picolinic acid] was tested. Which IC50 did it give?
Answer: 0.0001 to 1 µM

Question: For `Cc1noc(C)c1-c1cnc2c(c1)c(-c1cccc(C(=O)O)c1)cn2C(C1CC1)C1CC1` [P-0058, 3-(1-(dicyclopropylmethyl)-5-(3,5-dimethylisoxazol-4-yl)-1H-pyrrolo[2,3-b]pyridin-3-yl)benzoic acid], which IC50 is on record?
Answer: 0.0001 to 1 µM

Question: Which IC50 does the source give for `Cc1noc(C)c1-c1cnc2c(c1)c(-c1cccc(C(=O)O)c1)cn2Cc1cccc(OC(F)(F)F)c1` [P-0059, 3-(5-(3,5-dimethylisoxazol-4-yl)-1-(3-(trifluoromethoxy)benzyl)-1H-pyrrolo[2,3-b]pyridin-3-yl)benzoic acid] here?
Answer: 0.0001 to 1 µM

Question: For `Cc1noc(C)c1-c1cnc2c(c1)c(-c1cccc(C(=O)O)c1)cn2Cc1cccc(F)c1` [P-0060, 3-(5-(3,5-dimethylisoxazol-4-yl)-1-(3-fluorobenzyl)-1H-pyrrolo[2,3-b]pyridin-3-yl)benzoic acid], which IC50 is on record?
Answer: 0.0001 to 1 µM

Question: `Cc1noc(C)c1-c1cnc2c(c1)c(-c1cccc(C(=O)O)c1)cn2Cc1cccc(Cl)c1` [P-0061, 3-(1-(3-chlorobenzyl)-5-(3,5-dimethylisoxazol-4-yl)-1H-pyrrolo[2,3-b]pyridin-3-yl)benzoic acid] was tested. Which IC50 did it give?
Answer: 0.0001 to 1 µM

Question: How did the IC50 turn out when `Cc1cccc(Cn2cc(-c3cccc(C(=O)O)c3)c3cc(-c4c(C)noc4C)cnc32)c1` [P-0062, 3-(5-(3,5-dimethylisoxazol-4-yl)-1-(3-methylbenzyl)-1H-pyrrolo[2,3-b]pyridin-3-yl)benzoic acid] was run?
Answer: 0.0001 to 1 µM

Question: For `Cc1noc(C)c1-c1cnc2c(c1)c(-c1cccc(C(=O)O)c1)cn2Cc1cccc(C(F)(F)F)c1` [P-0063, 3-(5-(3,5-dimethylisoxazol-4-yl)-1-(3-(trifluoromethyl)benzyl)-1H-pyrrolo[2,3-b]pyridin-3-yl)benzoic acid], which IC50 is on record?
Answer: 0.0001 to 1 µM

Question: `Cc1noc(C)c1-c1cnc2c(CC3CCC3)cn(-c3ccc(C(=O)O)cc3OC(F)F)c2c1` [P-0064, 4-(3-(cyclobutylmethyl)-6-(3,5-dimethylisoxazol-4-yl)-1H-pyrrolo[3,2-b]pyridin-1-yl)-3-(difluoromethoxy)benzoic acid] was tested. Which IC50 did it give?
Answer: 0.0001 to 1 µM

Question: Which IC50 does the source give for `Cc1noc(C)c1-c1cnc2c(CC3CC3)cn(-c3ccnc(C(=O)O)c3)c2c1` [P-0065, 4-(3-(cyclopropylmethyl)-6-(3,5-dimethylisoxazol-4-yl)-1H-pyrrolo[3,2-b]pyridin-1-yl)picolinic acid] here?
Answer: 0.0001 to 1 µM

Question: How did the IC50 turn out when `Cc1noc(C)c1-c1cnc2c(CC3CCC3)cn(-c3ccc(C(=O)O)cc3OC(F)(F)F)c2c1` [P-0066, 4-(3-(cyclobutylmethyl)-6-(3,5-dimethylisoxazol-4-yl)-1H-pyrrolo[3,2-b]pyridin-1-yl)-3-(trifluoromethoxy)benzoic acid] was run?
Answer: 0.0001 to 1 µM

Question: How did the IC50 turn out when `COc1cc(C(=O)O)cc(OC)c1-n1cc(CC2CCC2)c2ncc(-c3c(C)noc3C)cc21` [P-0067, 4-(3-(cyclobutylmethyl)-6-(3,5-dimethylisoxazol-4-yl)-1H-pyrrolo[3,2-b]pyridin-1-yl)-3,5-dimethoxybenzoic acid] was run?
Answer: 0.0001 to 1 µM

Question: Which IC50 does the source give for `Cc1noc(C)c1-c1cnc2c(CC3CCC3)cn(-c3ccc(S(C)(=O)=O)c(F)c3)c2c1` [P-0068, 4-(3-(cyclobutylmethyl)-1-(3-fluoro-4-(methylsulfonyl)phenyl)-1H-pyrrolo[3,2-b]pyridin-6-yl)-3,5-dimethylisoxazole] here?
Answer: 0.0001 to 1 µM

Question: How did the IC50 turn out when `Cc1noc(C)c1-c1cnc2c(c1)c(C#CC(=O)O)cn2Cc1ccccc1` [P-0069, 3-(1-benzyl-5-(3,5-dimethylisoxazol-4-yl)-1H-pyrrolo[2,3-b]pyridin-3-yl)propiolic acid] was run?
Answer: 0.0001 to 1 µM

Question: For `Cc1noc(C)c1-c1cnc2c(c1)c(-c1ccc(C(=O)O)cc1OC(F)(F)F)cn2[C@@H](C)c1ccccn1` [P-0070, (S)-4-(5-(3,5-dimethylisoxazol-4-yl)-1-(1-(pyridin-2-yl)ethyl)-1H-pyrrolo[2,3-b]pyridin-3-yl)-3-(trifluoromethoxy)benzoic acid], which IC50 is on record?
Answer: 0.0001 to 1 µM

Question: Which IC50 does the source give for `Cc1noc(C)c1-c1cnc2c(c1)c(-c1ccc(C(=O)O)cc1OC(F)F)cn2[C@@H](C)c1ccccn1` [P-0071, (S)-3-(difluoromethoxy)-4-(5-(3,5-dimethylisoxazol-4-yl)-1-(1-(pyridin-2-yl)ethyl)-1H-pyrrolo[2,3-b]pyridin-3-yl)benzoic acid] here?
Answer: 0.0001 to 1 µM

Question: `Cc1noc(C)c1-c1cnc2c(c1)c(-c1cccc(C(=O)O)c1)cn2C(C1CCC1)C1CCC1` [P-0072, 3-(1-(dicyclobutylmethyl)-5-(3,5-dimethylisoxazol-4-yl)-1H-pyrrolo[2,3-b]pyridin-3-yl)benzoic acid] was tested. Which IC50 did it give?
Answer: 0.0001 to 1 µM

Question: `Cc1noc(C)c1-c1cnc2c(c1)c(-c1cccc(C(=O)O)c1)cn2C(c1ccccn1)C1CCC1` (stereo not shown) [P-0073, 3-(1-(cyclobutyl(pyridin-2-yl)methyl)-5-(3,5-dimethylisoxazol-4-yl)-1H-pyrrolo[2,3-b]pyridin-3-yl)benzoic acid] was tested. Which IC50 did it give?
Answer: 0.0001 to 1 µM

Question: `Cc1noc(C)c1-c1cnc2c(CC3CCC3)cn(-c3c(Cl)cc(C(=O)O)cc3Cl)c2c1` [P-0074, 3,5-dichloro-4-(3-(cyclobutylmethyl)-6-(3,5-dimethylisoxazol-4-yl)-1H-pyrrolo[3,2-b]pyridin-1-yl)benzoic acid] was tested. Which IC50 did it give?
Answer: 0.0001 to 1 µM
